Experimental data taken from patent US9278920B2, “Pleuromutilin derivatives for use in the treatment of diseases mediated by microbes” (Nabriva Therapeutics AG, priority 2010, dated 2016).
Where a name gives a salt, the structure may show the parent alone.

Assays:
[1] = tested on: Staphylococcus aureus ATCC49951; assay: MIC by Agar Dilution Test or Microdilution Test (CLSI M7-A7); assay type: cell-based; details: in vitro, strain ATCC49951, read-out: MIC against Staphylococcus aureus ATCC49951
Experimental: (§1) The in vitro activity against aerobic bacteria was determined by Agar Dilution Test or Microdilution Test according to the Clinical and Laboratory Standards Institute (CLSI, former NCCLS) Document M7-A7 Vol. 26, No. 2: “Methods for Dilution Antimicrobial Susceptibility Tests for Bacteria that Grow Aerobically—Approved Standard; Seventh Edition (2006)”; and the test against anaerobic bacteria was performed according to the Clinical and Laboratory Standards Institute (CLSI, former NCCLS), Document, M11-A6, Vol. 24, No. 2: “Methods for Antimicrobial Susceptibility Testing of Anaerobic Bacteria—Approved Standard; Sixth Edition (2004)” and the in vivo activity was tested by the septicemia mouse model against Staphylococcus aureus.

[2] = tested on: Streptococcus pneumoniae ATCC49619; assay: as above; assay type: cell-based; details: in vitro, strain ATCC49619, read-out: MIC against Streptococcus pneumoniae ATCC49619
Experimental: as §1

MIC [1]: ≤ 2 µg/mL
MIC [2]: ≤ 2 µg/mL
SMILES: C=C[C@]1(C)C[C@@H](OC(=O)CSC2CCC(N)CCC2O)[C@]2(C)C(C)CCC3(CCC(=O)C32)[C@@H](C)C1O (mixture of isomers) [Example 12, 14-O-{[(1R, 2R, 5R)-5-Amino-2-hydroxy-cycloheptylsulfanyl]-acetyl}-mutilin hydrochloride and the (1S, 2S, 5S), (1R, 2R, 5S), (1S, 2S, 5R) diastereomers thereof]
